In patent publication US10881668B2, “Acetamide thienotriazolodiazepines and uses thereof” (Dana-Farber Cancer Institute, Inc., priority 2015, dated 2021):
Read-outs that look alike come from different tables or passages of the source.

Assays:
[1] = male, CD1, mouse, in vivo
Method: (§4) Pharmacokinetic parameters were determined by administration of a candidate bromodomain inhibitor to male CD1 mice. Intravenous doses were delivered at 5 mg/kg, and oral doses at 10 mg/kg (N=3). […] The compound concentration in mouse blood was monitored over 24-hour time period to check the compound concentration in blood at 5 min, 30 min, 1 hour, 2 hours, 6 hours, 12 hours, and 24 hour via a series bleeding.

in vivo = conditions: male, CD1, mouse, iv, 1 mg/kg
Method: as §4

[2] = system: NMC797 cell line (BRD4 dependant NUT midline carcinoma line); assay: Cell proliferation assay (ATP content), NMC797; assay type: cell-based; conditions: 48-hour incubation
Method: (§1) The IC50 values of the compounds were determined by ALPHASCREENING assays for BRD4 and BRDT protein. NMC797 cell line is a BRD4 dependant NUT midline carcinoma line.
Cell Proliferation Assay.
Cells were seeded into white, 384-well microtiter plates (Nunc) at 500 cells per well in a total volume of 50 μL media. The 797, TT, and TE10 cells were grown in DMEM containing 1% penicillin/streptomycin and 10% FBS. The Per403 cells were grown in DMEM containing 1% penicillin/streptomycin and 20% FBS. Compounds were delivered to microtiter assay plates by robotic pin transfer (PerkinElmer JANUS equipped with a V&P Scientific 100 nL pin tool). Following a 48-hour incubation at 37° C., cells were lysed and wells were assessed for total ATP content using a commercial proliferation assay (Cell TITERGLO; Promega). Replicate measurements were analyzed with respect to dose and estimates of IC50 were calculated by logistic regression ([…] PRISM).

[3] = Pharmacokinetics in male CD1 mice, IV administration; conditions: whole blood; for AUC(0-inf) / AUC(0-t) / MRT inf / Vd / clearance / half-life: male, CD1, mouse, iv, 5 mg/kg
Method: as §4

[4] = Pharmacokinetics in male CD1 mice, oral administration; conditions: for F: oral 10 mg/kg (IV 5 mg/kg)
Method: as §4

BRDT(1) = BRDT(1) (Homo sapiens (Human), UniProt Q58F21); assay: AlphaScreen acetyl-histone binding assay, BRDT(1); conditions: H4K5acK8acK12acK16ac peptide
Method: as §1
(§2) Acetyl-Histone Binding Assay.
(§3) Assays were performed as described previously with minor modifications from the manufacturer's protocol (PerkinElmer, USA). All reagents were diluted in 50 mM HEPES, 100 mM NaCl, 0.1% BSA, pH 7.4 supplemented with 0.05% CHAPS and allowed to equilibrate to room temperature prior to addition to plates. A 24-point 1:2 serial dilution of the ligands was prepared over the range of 150-0 μM and 4 μl transferred to low-volume 384-well plates (PROXIPLATE™-384 Plus, PerkinElmer, USA), followed by 4 μl of HIS-tagged protein (BRD4/1, 250 nM, BRD4/2 and CREBBP, 2000 nM). […] Plates were sealed and incubated for a further 30 minutes, before the addition of 4 μl of streptavidin-coated donor beads (25 μg/ml) and 4 μl nickel chelate acceptor beads (25 μg/ml) under low light conditions. Plates were foil-sealed to protect from light, incubated at room temperature for 60 minutes and read on a PHERASTAR FS plate reader (BMG Labtech, Germany) using an ALPHASCREEN 680 excitation/570 emission filter set. IC50 values were calculated in Prism 5 ([…] Software, USA) after normalization against corresponding DMSO controls and are given as the final concentration of compound in the 20 μl reaction volume.

BRD4(1) = BRD4(1) (Homo sapiens (Human), UniProt O60885); assay: AlphaScreen acetyl-histone binding assay, BRD4(1); conditions: H4K5acK8acK12acK16ac peptide
Method: as §1, §2, §3

[5] = male CD1 mice, oral 10 mg/kg, whole blood, N=3
[6] = male, CD1, mouse, whole blood, po, 10 mg/kg

Work on `Cc1sc2c(c1C)C(c1ccc(Cl)cc1)=N[C@@H](CC(=O)N1CCC(N3CCCCC3)CC1)c1nnc(C)n1-2` [Compound 603] yielded an F [1] of 20% and a half-life (in vivo) of 1 h.
For `Cc1sc2c(c1C)C(c1ccc(Cl)cc1)=N[C@@H](CC(=O)OC(C)(C)C)c1nnc(C)n1-2` [JQ1, reference compound], the IC50 ([2]; NMC797 cells) was 21 nM, the AUCINF ([3]; male CD1 mice, IV 5 mg/kg, N=3) was 2130 ng·h/mL and the AUClast ([3]; male CD1 mice, IV 5 mg/kg, N=3) was 2130 ng·h/mL. For the same compound, the CL ([3]; male CD1 mice, IV 5 mg/kg, N=3) was 39.2 mL/min/kg, the MRTINF ([3]; male CD1 mice, IV 5 mg/kg, N=3) was 0.861 h and the AUCINF [4, 5] was 2090 ng·h/mL. The AUClast [4, 5] was 2040 ng·h/mL, the Cmax [4, 5] was 1180 ng/mL and the Tmax [4, 5] was 0.250 h.
`Cc1sc2c(c1C)C(c1ccc(Cl)cc1)=N[C@@H](CC(=O)NCC(C)(C)O)c1nnc(C)n1-2` [Compound 503] gave an IC50 (BRDT(1)) of 89 nM, an IC50 (BRD4(1)) of 44 nM and an IC50 ([2]; NMC-797, NMC797 cells) of 42 nM.
With `Cc1sc2c(c1C)C(c1ccc(Cl)cc1)=N[C@@H](CC(=O)NC[C@@H](C)O)c1nnc(C)n1-2` [Compound 502] the IC50 (BRDT(1)) was 61 nM, the IC50 ([2]; NMC-797, NMC797 cells) was 29 nM and the AUC(0-inf) [3] was 2960 ng·h/mL. It also gave an AUC(0-t) [3] of 2940 ng·h/mL, an MRT inf [3] of 0.882 h and a Vd [3] of 1.48 L/kg. It also gave a clearance [3] of 29.5 mL/min/kg, a half-life [3] of 1.06 h and an F ([4]; male CD1 mice, N=3) of 53.4%. It also gave an AUC(0-inf) [4, 6] of 3160 ng·h/mL, an AUC(0-t) [4, 6] of 3100 ng·h/mL and a Cmax [4, 6] of 1430 ng/mL. For the same compound, the Tmax [4, 6] was 0.5 h and the half-life [4, 6] was 1.37 h.
In the case of `Cc1sc2c(c1C)C(c1ccc(Cl)cc1)=N[C@@H](CC(=O)NCCCN1CCC(N3CCCCC3)CC1)c1nnc(C)n1-2` [Compound 602], the F [1] is reported as 2% and the half-life (in vivo) is reported as 21 h.
For `Cc1sc2c(c1C)C(c1ccc(Cl)cc1)=N[C@@H](CC(=O)NCC1CCN(CCN(C)C)CC1)c1nnc(C)n1-2` [Compound 601], the F [1] was 4% and the half-life (in vivo) was 11.7 h.
Compound `Cc1sc2c(c1C)C(c1ccc(Cl)cc1)=N[C@@H](CC(=O)NCCC(F)F)c1nnc(C)n1-2` [Compound 505] has an IC50 (BRDT(1)) of 75 nM and an IC50 ([2]; NMC-797, NMC797 cells) of 93 nM.
With `Cc1sc2c(c1C)C(c1ccc(Cl)cc1)=N[C@@H](CC(=O)NCC(F)F)c1nnc(C)n1-2` [Compound 504] the IC50 (BRDT(1)) was 69 nM and the IC50 ([2]; NMC-797, NMC797 cells) was 54 nM.
For `Cc1sc2c(c1C)C(c1ccc(Cl)cc1)=N[C@@H](CC(=O)N1CCn3c(nnc3C(F)(F)F)C1)c1nnc(C)n1-2` [Compound 605], the F [1] was 6% and the half-life (in vivo) was 0.5 h.
In the case of `Cc1sc2c(c1C)C(c1ccc(Cl)cc1)=N[C@@H](CC(=O)NC[C@H](C)O)c1nnc(C)n1-2` [Compound 501], the IC50 (BRDT(1)) is reported as 82 nM, the IC50 ([2]; NMC-797, NMC797 cells) is reported as 30 nM and the AUC(0-inf) [3] is reported as 2390 ng·h/mL. It also gave an AUC(0-t) [3] of 2380 ng·h/mL, an MRT inf [3] of 0.718 h and a Vd [3] of 1.54 L/kg. For the same compound, the clearance [3] was 36.7 mL/min/kg, the half-life [3] was 1.51 h and the F ([4]; male CD1 mice, N=3) was 53.7%. For the same compound, the AUC(0-inf) [4, 6] was 2570 ng·h/mL, the AUC(0-t) [4, 6] was 2520 ng·h/mL and the Cmax [4, 6] was 1260 ng/mL. For the same compound, the Tmax [4, 6] was 0.417 h and the half-life [4, 6] was 1.54 h.
Compound `Cc1sc2c(c1C)C(c1ccc(Cl)cc1)=N[C@@H](CC(=O)NCCCN1CCCC1)c1nnc(C)n1-2` [Compound 604] has an F [1] of 7% and a half-life (in vivo) of 2 h.
